From patent US20220220100A1 (SOLUTIA CANADA INC., priority 2019, published 2022)

How the values were obtained:
Assay type in all cases: physicochemical
[1] = Oxidation potential of ring-closed and ring-open isomers; details: no unit printed in table (V relative to Ag/AgCl)
[2] = UV/Vis absorbance at 400 nm and Yellowness Index of the ring-open isomer; details: for Abs @ 400 nm, RO (Absorption of ring-open isomer at 400 nm): 2×10^−5 M solution, 1 cm pathlength cuvette
Summary of the method: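 Compound measured as a 2×10^−5 M solution in a 1 cm cuvette after photofading with visible light until visible absorption stabilized. Absorbance at 400 nm and Yellowness Index refer to this ring-open isomer.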

[3] = Solubility in Rhodiasolv IRIS solvent; details: Rhodiasolv IRIS (dimethyl-2-methyl glutarate); wt %
Excerpt: A compound with greater solubility allows for a formulation or material with a greater concentration of coloured molecule to be incorporated into a composition. This may allow for increasing the contrast ratio for a compound with a lesser absorbance at PSS. Examples of solubilizing groups for the compound include alkoxy, ether, ester or siloxy groups. In various embodiments, compounds may be soluble in the solvent component at room temperature at about 6 wt %, 7 wt %, 8 wt %, 9 wt %, 10 wt % or greater for testing to determine whether a compound has application as an exterior glazing or optical filter. If the solubility of a compound in the solvent component is too low, then insufficient darkening may be achieved in the ring-closed configuration, depending on conditions of use for the compound.
Chromophore solutions in Rhodiasolv IRIS were prepared at 1 to 10 wt % loading. Solutions were prepared in a glovebox by charging the chromophore and Rhodiasolv IRIS to a trace-clean vial, and the solution was stirred on a hotplate at 90° C. for 2-24 hours. After cooling, the chromophore solution was injected into glass weathering cells and the fill and vent ports were sealed with a thin disc of Kalrez (FFKM Perfluorinated Elastomer) and secured with a clamp and set-screw. The weathering cells were filled and sealed inside the glove box.

[4] = Photostationary state (PSS) and lambda max under simulated sunlight (solar simulator); details: for PSS (SS): absorbance at photostationary state, simulated sunlight (solar simulator), 2×10^−5 M solution; for λmax (nm): peak in the visible range, ring-closed (dark) state
Summary of the method: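 Compound at 2×10^−5 M in solvent was first photofaded with visible light until visible absorption stabilized, then irradiated with simulated sunlight (xenon-arc solar simulator) until the UV/Vis spectrum stabilized. A second sample was run the same way with a UV-blocking film in the light path.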

Structure (SMILES)	RC [O] (oxidation potential of ring-closed isomer) [1]	RO [O] (oxidation potential of ring-open isomer) [1]	YI (Yellowness Index) [2]	Abs @ 400 nm, RO (Absorption of ring-open isomer at 400 nm) [2]	Solubility in Rhodiasolv IRIS [3] [%]	PSS (SS) [4]	λmax (nm) [4] [nm]
COCCCOc1cc2oc(-c3ccc(C(C)(C)C)cc3)c(C3=C(c4cc(-c5cc6c(s5)C(C)(C)CCC6(C)C)sc4-c4cc5c(s4)C(C)(C)CCC5(C)C)C(F)(F)C(F)(F)C3(F)F)c2cc1OCCCOC [Chromophore S388, 3-(2-(2,5-bis(4,4,7,7-tetramethyl-4,5,6,7-tetrahydrobenzo[b]thiophen-2-yl)thiophen-3-yl)-3,3,4,4,5,5-hexafluorocyclopent-1-en-1-yl)-2-(4-(tert-butyl)phenyl)-5,6-bis(3-methoxypropoxy)benzofuran]	0.89	1.28	6.3	0.132	>10	0.38	600
CC(C)(C)c1ccc(-c2oc3cc(OCCN4CCOC4=O)c(OCCN4CCOC4=O)cc3c2C2=C(c3cc(-c4cc5c(s4)C(C)(C)CCC5(C)C)sc3-c3cc4c(s3)C(C)(C)CCC4(C)C)C(F)(F)C(F)(F)C2(F)F)cc1 [Chromophore S390, 3,3′-(((3-(2-(2,5-bis(4,4,7,7-tetramethyl-4,5,6,7-tetrahydrobenzo[b]thiophen-2-yl)thiophen-3-yl)-3,3,4,4,5,5-hexafluorocyclopent-1-en-1-yl)-2-(4-(tert-butyl)phenyl)benzofuran-5,6-diyl)bis(oxy))bis(ethane-2,1-diyl))bis(oxazolidin-2-one)]	0.93	1.29	6.48	0.133	>10	0.45	593
CC(=O)Oc1cc2oc(-c3ccc(C(C)(C)C)cc3)c(C3=C(c4cc(-c5cc(C(C)(C)C)cs5)sc4-c4cc(C(C)(C)C)cs4)C(F)(F)C(F)(F)C3(F)F)c2cc1OC(C)=O [Chromophore S396, 2-(4-(tert-butyl)phenyl)-3-(2-(4,4″-di-tert-butyl-[2,2′:5′,2″-terthiophen]-3′-yl)-3,3,4,4,5,5-hexafluorocyclopent-1-en-1-yl)benzofuran-5,6-diyl diacetate]	1.18	1.48	2.78	0.08	>3	0.278	578
COc1ccc2oc(-c3ccc(C(C)(C)C)cc3)c(C3=C(c4cc(-c5cc6c(s5)C(C)(C)CCC6(C)C)sc4-c4cc5c(s4)C(C)(C)CCC5(C)C)C(F)(F)C(F)(F)C3(F)F)c2c1 [Chromophore S400]	1.01	1.29	6.67	0.125	>3	0.306	592
COc1cc2oc(-c3ccc(C(C)(C)C)cc3)c(C3=C(c4cc(-c5cc6c(s5)C(C)(C)CCCC6(C)C)sc4-c4cc5c(s4)C(C)(C)CCCC5(C)C)C(F)(F)C(F)(F)C3(F)F)c2cc1OC [Chromophore S405]	0.91	1.28	7.26	0.143	>1	0.381	598
